Source: article PMC11274883, “Anticancer Effect of Pt^[sequence], Pt^II5MESS, Pt^II56MESS and Their Platinum(IV)-Dihydroxy Derivatives against Triple-Negative Breast Cancer and Cisplatin-Resistant Colorectal Cancer” (Cancers, 2024)

System: MDA−MB−231 cells
Assay: Western blot protein expression
Assay type: cell-based
Conditions: MDA−MB−231, IC50, 72 h; for β-actin/GAPDH normalized to control (1): representative blot Figure S24A; for β-tubulin/GAPDH normalized to control (1): representative blot Figure S24B; for α-tubulin/GAPDH normalized to control (1): representative blot Figure S24C; for p-AKT/AKT/GAPDH normalized to control (1): representative blot Figure S25A; for p-ERK/ERK/GAPDH normalized to control (1): representative blot Figure S25B; for p53/GAPDH normalized to control (1): representative blot Figure S25C; for p21/GAPDH normalized to control (1): representative blot Figure S25D; for Bax/GAPDH normalized to control (1): representative blot Figure S26A; for Bcl2/GAPDH normalized to control (1): representative blot Figure S26B; for Cytochrome C/GAPDH normalized to control (1): representative blot Figure S26C; for Procaspase 8/GAPDH normalized to control (1): representative blot Figure S26D; for Cleaved BID/GAPDH normalized to control (1): representative blot Figure S26E; for Procaspase 9/GAPDH normalized to control (1): representative blot Figure S26F; for Procaspase 3/GAPDH normalized to control (1): representative blot Figure S26G; for PARP-1/GAPDH normalized to control (1): representative blot Figure S26H; for Beclin1/GAPDH normalized to control (1): representative blot Figure S27A; for ATG5/GAPDH normalized to control (1): representative blot Figure S27B; for ATG16L1/GAPDH normalized to control (1): representative blot Figure S27C; for ATG9A/GAPDH normalized to control (1): representative blot Figure S27D; for ATG4B/GAPDH normalized to control (1): representative blot Figure S27E; for LC3B/GAPDH normalized to control (1): representative blot Figure S27F
In short: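 Cells were lysed in RIPA buffer with orthovanadate, and 20 µg protein was run on SDS-PAGE, transferred to PVDF and probed for proliferation, apoptosis, microtubule and autophagy markers. ECL band intensities were normalised to GAPDH and then to untreated control. Three independent experiments were run per marker.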

Structure (SMILES)	β-actin/GAPDH normalized to control (1)	β-tubulin/GAPDH normalized to control (1)	α-tubulin/GAPDH normalized to control (1)	p-AKT/AKT/GAPDH normalized to control (1)	p-ERK/ERK/GAPDH normalized to control (1)	p53/GAPDH normalized to control (1)	p21/GAPDH normalized to control (1)	Bax/GAPDH normalized to control (1)	Bcl2/GAPDH normalized to control (1)	Cytochrome C/GAPDH normalized to control (1)	Procaspase 8/GAPDH normalized to control (1)	Cleaved BID/GAPDH normalized to control (1)	Procaspase 9/GAPDH normalized to control (1)	Procaspase 3/GAPDH normalized to control (1)	PARP-1/GAPDH normalized to control (1)	Beclin1/GAPDH normalized to control (1)	ATG5/GAPDH normalized to control (1)	ATG16L1/GAPDH normalized to control (1)	ATG9A/GAPDH normalized to control (1)	ATG4B/GAPDH normalized to control (1)	also measured
Cc1cc2cccnc2c2ncccc12.N[C@H]1CCCC[C@@H]1N.O=[N+]([O-])[O-].O=[N+]([O-])[O-].[OH][Pt+2][OH] [Pt^IV5MESS(OH)2, [Pt(5-methyl-1,10-phenanthroline)(1S,2S-diaminocyclohexane)(dihydroxy)](NO3)2]	0.8788	0.3985	1.177	0.9345	0.144	1.183	1.042	1.846	0.7914	2.795	0.3546	5.948	0.3022	0.7167	0.5187	0.9374	1.065	1.203	0.3984	2.797	LC3B/GAPDH normalized to control (1): 0.6059
Cc1cc2cccnc2c2ncccc12.N[C@H]1CCCC[C@@H]1N.O=[N+]([O-])[O-].O=[N+]([O-])[O-].[Pt+2] [Pt^II5MESS, [Pt(5-methyl-1,10-phenanthroline)(1S,2S-diaminocyclohexane)](NO3)2]	0.7082	0.4163	0.6399	0.5388	0.5947	0.7809	2.478	1.886	0.5074	1.513	0.5099	14.29	0.3101	0.5405	0.7693	2.588	0.5948	0.4742	0.2882	1.839	LC3B/GAPDH normalized to control (1): 0.9366
N[C@H]1CCCC[C@@H]1N.O=[N+]([O-])[O-].O=[N+]([O-])[O-].[Pt+2].c1cnc2c(c1)ccc1cccnc12 [[Pt(1,10-phenanthroline)(1S,2S-diaminocyclohexane)](NO3)2]	0.4744	1.15	0.9355	0.6042	0.6771	1.105	1.812	1.161	0.8361	1.827	0.5195	13.39	0.2042	0.3207	0.7775	1.911	0.7762	0.6758	0.361	1.546	LC3B/GAPDH normalized to control (1): 0.9969
Cc1c(C)c2cccnc2c2ncccc12.N[C@H]1CCCC[C@@H]1N.O=[N+]([O-])[O-].O=[N+]([O-])[O-].[OH][Pt+2][OH] [Pt^IV56MESS(OH)2, [Pt(5,6-dimethyl-1,10-phenanthroline)(1S,2S-diaminocyclohexane)(dihydroxy)](NO3)2]	0.6671	0.4289	1.359	0.79	0.2828	1.183	1.053	2.6	0.8651	2.185	0.568	8.533	0.4557	0.9471	0.6182	0.9592	0.8924	1.456	0.8822	2.179	LC3B/GAPDH normalized to control (1): 0.7501
N[C@H]1CCCC[C@@H]1N.O=[N+]([O-])[O-].O=[N+]([O-])[O-].[OH-].[OH-].[Pt+4].c1cnc2c(c1)ccc1cccnc12 [[Pt(1,10-phenanthroline)(1S,2S-diaminocyclohexane)(dihydroxy)](NO3)2]	0.835	0.6552	0.9279	1.063	0.1206	1.176	1.346	1.398	0.7843	2.378	0.2888	1.33	0.2675	0.4093	0.5717	1.408	1.129	0.9987	0.774	1.581	LC3B/GAPDH normalized to control (1): 0.6076
Cc1c(C)c2cccnc2c2ncccc12.N[C@H]1CCCC[C@@H]1N.O=[N+]([O-])[O-].O=[N+]([O-])[O-].[Pt+2] [Pt^II56MESS, [Pt(5,6-dimethyl-1,10-phenanthroline)(1S,2S-diaminocyclohexane)](NO3)2]	0.5956	0.5978	0.7887	0.5229	0.06081	0.6187	2.6	1.276	0.6846	3.109	0.3584	14.74	0.4755	0.4243	0.634	3.15	0.4012	0.5726	0.2848	2.107	LC3B/GAPDH normalized to control (1): 0.8478
